In patent US10485237B2, “Use of a chemical agent for thinning of stone fruit” (FINE AGROCHEMICALS LIMITED, priority 2014, dated 2019):
“Also recorded” adds a separate entry of the source.

How the values were obtained:
[1] = test system: UFO-4 nectarines; test: Dose rate trial in Spain, fruit numbers; format: in vivo, nectarine; settings: 10 g/hL (Falgro tablets), comparative experiment B
[2] = test system: UFO-4 nectarines; test: Dose rate trial in Spain, fruit numbers; format: in vivo, nectarine
Description: (§1) Two trials were carried out in Spain: a timing trial and a dose rate trial. The dose rate trial was done at UFO-4 nectarines. The use of GA7 (>95% pure with respect to the presence of GA4) was applied in amounts between 0.25 and 2 L/hL at 2 months of full bloom on UFO-4 peach.

[3] = test system: peach; test: Ex 6: 2011 peach return bloom (blossom counts proximal/distal); format: in vivo
Text: Shoots were divided in half and blossoms were counted according to proximal, the half closest to the tree trunk, and distal, the half closest to the shoot tip.

[4] = test system: apricot variety; settings: cited from earlier work
[5] = test system: Merryl O Henry peach; test: Timing trial in Spain, fruit numbers; format: in vivo
Description: as §1
Further trial was executed on Merryl O Henry peach. The application of GA7 was varied over time, and in one programme GA7 was applied in two doses, 2 weeks apart.

[6] = test system: stone fruit; test: Reliability of fruit thinning by spraying on fruit trees; format: in vivo; settings: sprayed on fruit trees
Text: GA7 may be used in admixture with GA4, but the relative amounts of GA7 to GA4 are 70% GA7 or more and 30 GA4 or less. Preferably, the GA7 contains less than 10 wt % of GA4 relative to the GA7, more preferably less than 5 wt %. […] In some years, some thinning is observed, but this effect is not consistently achieved.

[7] = test system: peach and nectarines; test: Other three 2011-12 trials, number of flowers per branch; format: in vivo; settings: depending on the trial and the rate
Description: (§2) Trials were carried out in Italy and Spain with GA7. The trees were treated with GA7 about 3 months after full bloom in order to reduce flowering the year thereafter.
(§3) In 2011, new trials were started: 4 trials in peach and nectarines.

[8] = test system: peach and nectarine; test: 2010-11 thinning trial in Italy; format: in vivo; settings: 1 L/100 L ca. 3 months after full bloom, GA7 95% pure relative to GA4
Description: as §2

[9] = test system: stone fruit; test: Summary of the thinning tests with GA7; format: in vivo; settings: compared with fully hand-thinned fruit
[10] = test system: peach; test: Ex 8: 2011 peach trial (flowers per branch, fruit size and quality); format: in vivo
Text: This study consisted of 3 treatments applied on April 25, May 10, and May 26, 2011 (which is 45, 60 and 75 days after full bloom): • 1. Untreated check • 2. FAL 900 at a rate of 25 ppm ai (C) which is 2.5 g per 100 L, which is 0.25 L formulation per 100 L. • 3. FAL 900 at a rate of 50 ppm ai (C) • 4. FAL 900 at a rate of 10 ppm ai (3 treatments with 2 weeks interval) 2011-12 Observations: Evaluations consisted of assessing for firmness, soluble solids, and titratable acidity, and weight of 20 fruit per plot on end of July early August. Shoot measurements were recorded on end of February in […] from ten shoots per plot. The number of flowers per branch were counted from two halves (proximal and distal) of ten branches per plot on end of February 2012.

[11] = test system: nectarine; test: 2011-12 trial in nectarine, return bloom (number of flowers on distal and basal part of branches); format: in vivo
Description: as §2, §3

[12] = test system: peach and nectarine; test: 2010-11 thinning trials in Spain (Catalonia, Masso); format: in vivo
Description: as §2
In Spain, trials were carried out on peach and nectarine with GA7 (>95% pure relative to GA4). The first assessments were done at harvest in 2010. […] The main assessments took place in spring 2011 (i.e. the next year): The reduction of the number of buds per cm was in the order of 35% in the trials carried out in the Catalonia region. In the trials in Masso also, clear reductions of 41-78% were found depending on the variety and the dose. In the meantime, fruit size was increased. Time necessary for hand thinning was recorded in the trials done in Catalonia. The treatment with GA7 allowed a reduction of about 30% of the hand thinning time.

[13] = test system: peach; test: Initial evaluation trial in Piemonte, GA7 on peach fruitlets; format: in vivo; settings: 750 ml/hl on 10 mm fruitlets of peach
Description: An initial test was carried out as an evaluation trial in Piemonte with GA7 applied at 750 ml/hl on 10 mm fruitlets of peach.

[14] = test system: peach; test: Ex 7: 2012 peach return bloom; format: in vivo; settings: applied at 50 ppm
Text: Once again, shoots were divided in half and blossoms were counted according to proximal and distal halves.

[15] = 10 g/hL (Falgro tablets), comparative experiment B
[16] = 0.5 L/hL, sprays 1.5 and 2 month after full bloom (two doses)
[17] = 1 L/hL, spray 1.5 month after full bloom
[18] = 1 L/hL, spray 2 month after full bloom
[19] = 1 L/hL, spray 2.5 month after full bloom
[20] = 0.25 L/hL at 2 months of full bloom
[21] = 0.5 L/hL at 2 months of full bloom
[22] = 1.0 L/hL at 2 months of full bloom
[23] = 2.0 L/hL at 2 months of full bloom

For C=C1C[C@]23C[C@@]1(O)CC[C@H]2[C@@]12C=C[C@H](O)[C@@](C)(C(=O)O1)[C@H]2[C@@H]3C(=O)O [GA3, gibberellic acid], the “Number of fruit/m of long fruiting shoots (>20 cm)” value (“Number of fruit/m … (>20 cm)” for short) [1] was 18, the “Number of fruit/m of total fruiting shoots” value [1] was 19 and the “Number of fruit/m of short fruiting shoots (<20 cm)” value (shortened to “Number of fruit/m … (<20 cm)”) [2, 15] was 29. For the same compound, the “Total number of fruit per tree” value [2, 15] was 675, the “blossom counts in comparison to the UTC” value ([3]; both rates, throughout the trial) was “consistently lower blossom counts” and the “rate response of blossom counts” value ([3]; two evaluation dates) was “a rate response was observed for the first evaluation date, but not the second”.
For C=C1C[C@]23C[C@H]1CC[C@H]2[C@@]12CC[C@H](O)[C@@](C)(C(=O)O1)[C@H]2[C@@H]3C(=O)O [GA4, reference compound], the “effectiveness compared among GA3, GA4 and GA7” value ([4]; applied in May or June, source and purity unclear) is listed as “more effective than either GA3 or GA7”.
With C=C1C[C@]23C[C@H]1CC[C@H]2[C@@]12C=C[C@H](O)[C@@](C)(C(=O)O1)[C@H]2[C@@H]3C(=O)O [GA7, gibberellin 7] the “Number of fruit/m … (>20 cm)” value [5, 16] was 4.7, the “Number of fruit/m … (<20 cm)” value [5, 16] was 5.8 and the “Number of fruit/m of total fruiting shoots” value [5, 16] was 5.6. The “Total number of fruit per tree” value [5, 16] was 115, the “Number of fruit/m … (>20 cm)” value [5, 17] was 8.6 and the “Number of fruit/m … (<20 cm)” value [5, 17] was 5.9. The “Number of fruit/m of total fruiting shoots” value [5, 17] was 6.5, the “Total number of fruit per tree” value [5, 17] was 149 and the “Number of fruit/m … (>20 cm)” value [5, 18] was 5.1. The “Number of fruit/m … (<20 cm)” value [5, 18] was 3.6, the “Number of fruit/m of total fruiting shoots” value [5, 18] was 3.8 and the “Total number of fruit per tree” value [5, 18] was 77. The “Number of fruit/m … (>20 cm)” value [5, 19] was 3.7, the “Number of fruit/m … (<20 cm)” value [5, 19] was 2.8 and the “Number of fruit/m of total fruiting shoots” value [5, 19] was 3.0. For the same compound, the “Total number of fruit per tree” value [5, 19] was 69, the “effectiveness for thinning stone fruit” value ([5]; applied at varying times) was “effective for thinning stone fruit” and the “effect on flowering vs. untreated” value ([4]; 6 experiments) was “only in 1 out of 6 experiments a non significant reducing effect on flowering; also recorded: in 4 experiments out of 6 shows the opposite effect of increased flowering”. For the same compound, the “reliability of fruit thinning results” value [6] was “reliable thinning results”, the “reduction in the number of flowers per branch in comparison to the untreated” value [7] was −17 to −50% and the “reduction in the number of fruit/meter of branch” value ([8]; variety Laura) was 1.5%. For the same compound, the “reduction in the number of fruit/meter of branch” value ([8]; variety Sinphony) was 32.9%, the “quality of the resultant fruit” value [9] was “same quality as fully hand-thinned fruit” and the “number of flowers on the lower or proximal half of the branch (A)” value ([10]; 50 ppm ai (C)) was “significantly lowest”. For the same compound, the “size of peaches collected” value ([10]; 50 ppm ai, tree also producing the largest peaches in 2011) was “largest peaches”, the “quality of the peaches” value ([10]; firmness, soluble solids, titratable acidity, weight) was “not influenced” and the No of flowers ([11]; basal part, 0.5 L/hL) was 8.5. The “No of flowers, change vs untreated” value ([11]; basal part, 0.5 L/hL) was −37%, the No of flowers ([11]; basal part, 1 L/hL) was 5.4 and the “No of flowers, change vs untreated” value ([11]; basal part, 1 L/hL) was −60%. For the same compound, the return bloom ([11]; distal and proximal part of the branches, rate effect between 0.5 and 1 L/100 L) was “return bloom is reduced”, the No of flowers ([11]; distal part, 0.5 L/hL) was 4.7 and the “No of flowers, change vs untreated” value ([11]; distal part, 0.5 L/hL) was −58%. For the same compound, the No of flowers ([11]; distal part, 1 L/hL) was 3.7, the “No of flowers, change vs untreated” value ([11]; distal part, 1 L/hL) was −67% and the fruit size ([12]; Masso trials, 2011) was “increased”. For the same compound, the “impact of the treatments on yield and fruit quality” value ([12]; assessments at harvest in 2010, GA7 >95% pure relative to GA4) was “did not show any impact”, the “reductions (trials in Masso)” value ([12]; spring 2011, Masso, depending on the variety and the dose) was 41-78% and the “reduction of the number of buds per cm” value ([12]; spring 2011, trials in the Catalonia region) was roughly 35%. For the same compound, the “reduction of the hand thinning time” value ([12]; trials done in Catalonia) was “about 30%”, the “control of flowering in the following year” value [13] was “high control of flowering” and the budding ([13]; especially on young lateral branches) was “better budding”. The “Number of fruit/m … (>20 cm)” value [2, 20] was 20, the “Number of fruit/m … (<20 cm)” value [2, 20] was 27 and the “Number of fruit/m of total fruiting shoots” value [2, 20] was 21. The “Total number of fruit per tree” value [2, 20] was 704, the “Number of fruit/m … (>20 cm)” value [2, 21] was 23 and the “Number of fruit/m … (<20 cm)” value [2, 21] was 28. The “Number of fruit/m of total fruiting shoots” value [2, 21] was 24, the “Total number of fruit per tree” value [2, 21] was 729 and the “Number of fruit/m … (>20 cm)” value [2, 22] was 17. For the same compound, the “Number of fruit/m … (<20 cm)” value [2, 22] was 12, the “Number of fruit/m of total fruiting shoots” value [2, 22] was 16 and the “Total number of fruit per tree” value [2, 22] was 491. The “Number of fruit/m … (>20 cm)” value [2, 23] was 13, the “Number of fruit/m … (<20 cm)” value [2, 23] was 7 and the “Number of fruit/m of total fruiting shoots” value [2, 23] was 12. For the same compound, the “Total number of fruit per tree” value [2, 23] was 375, the “thinning effectiveness of GA7 versus GA3” value ([2]; at comparable amounts of GA7 and GA3 (Falgro tablets)) was “more effective” and the “2012 return bloom, bloom counts totaled across the entire fruiting branch (proximal+distal)” value [14] was “significant reduction”.
